# According to ChEMBL document CHEMBL4118118, “Hydrophobic structure of hairpin ten-ring pyrrole-imidazole polyamides enhances tumor tissue accumulation/retention in vivo” (Bioorg Med Chem, 2018):
# Columns and labels:
# [1] = Retention time of the compound by reverse-phase HPLC method; type: physicochemical
# [2] = Octanol water partition coefficient, log P of the compound by reverse-phase HPLC method; type: physicochemical
# [3] = Drug uptake in tumor of nude BALB/c mouse xenografted with human LS180 cells at 1 mg/kg, iv measured at 48 hrs post administration by fluorescence-based imaging analysis; type: ADME, organism-based, Neoplasm; details: in vivo
# [4] = Drug uptake in kidneys of nude BALB/c mouse xenografted with human LS180 cells at 1 mg/kg, iv measured at 3 days post administration by DAPI-based confocal laser microscopic analysis; type: ADME, organism-based, Kidney; details: in vivo, 72 h
# [5] = Drug uptake in human LS180 cells up to 1 uM after 24 hrs by fluorospectrometry; type: ADME, cell-based; details: ls180, 24 h
# [6] = Drug uptake in tumor of human SW480 cells xenografted in nude BALB/c mouse assessed as increase in mean fluorescence intensity at 1 mg/kg, iv measured at 0.25 to 72 hrs post administration by fluorescence-based imaging analysis; type: ADME, organism-based, Neoplasm; details: in vivo
# [7] = Drug uptake in tumor of nude BALB/c mouse xenografted with human LS180 cells assessed as increase in mean fluorescence intensity at 1 mg/kg, iv measured at 6 hrs post administration by fluorescence-based imaging analysis; type: ADME, organism-based, Neoplasm; details: in vivo
# [8] = system: Mus musculus; experiment: Drug uptake in non-tumor tissue area of nude BALB/c mouse xenografted with human LS180 cells assessed as increase in mean fluorescence intensity at 1 mg/kg, iv measured at 24 hrs post administration by fluorescence-based imaging analysis; type: ADME, organism-based; details: in vivo
# [9] = Drug uptake in spleen of nude BALB/c mouse xenografted with human LS180 cells at 1 mg/kg, iv measured at 3 to 9 days post administration by DAPI-based confocal laser microscopic analysis; type: ADME, organism-based; details: in vivo
# [10] = Drug uptake in liver of nude BALB/c mouse xenografted with human LS180 cells at 1 mg/kg, iv measured at 3 days post administration by DAPI-based confocal laser microscopic analysis; type: ADME, organism-based; details: in vivo, 72 h
# [11] = Drug uptake in tumor of nude BALB/c mouse xenografted with human LS180 cells at 1 mg/kg, iv measured at 3 days post administration by DAPI-based confocal laser microscopic analysis; type: ADME, organism-based, Neoplasm; details: in vivo, 72 h
# [12] = system: Mus musculus; experiment: Drug uptake in non-tumor tissue area of nude BALB/c mouse xenografted with human LS180 cells assessed as increase in mean fluorescence intensity at 1 mg/kg, iv measured at 5 mins post administration by fluorescence-based imaging analysis; type: ADME, organism-based; details: in vivo
# [13] = Drug uptake in human SW480 cells up to 1 uM after 24 hrs by fluorospectrometry; type: ADME, cell-based; details: sw480, 24 h
# [14] = Drug uptake in heart of nude BALB/c mouse xenografted with human LS180 cells at 1 mg/kg, iv measured at 3 to 9 days post administration by DAPI-based confocal laser microscopic analysis; type: ADME, organism-based; details: in vivo
# [15] = Drug uptake in lungs of nude BALB/c mouse xenografted with human LS180 cells at 1 mg/kg, iv measured at 3 to 9 days post administration by DAPI-based confocal laser microscopic analysis; type: ADME, organism-based, Lung; details: in vivo
# [16] = Drug uptake in tumor of nude BALB/c mouse xenografted with human LS180 cells at 1 mg/kg, iv measured at 2 hrs post administration by fluorescence-based imaging analysis; type: ADME, organism-based, Neoplasm; details: in vivo
# [17] = Drug localization in nucleus of human LS180 cells at 1 uM after 2 hrs by DAPI-fluoresecence based confocal laser microscopy; type: ADME, subcellular; details: ls180, 2 h
# [18] = Drug uptake in tumor of nude BALB/c mouse xenografted with human LS180 cells assessed as mean fluorescence intensity at 1 mg/kg, iv measured at 72 hrs post administration by fluorescence-based imaging analysis; type: ADME, organism-based, Neoplasm; details: in vivo
# [19] = Drug localization in nucleus of human SW480 cells at 1 uM after 2 hrs by DAPI-fluoresecence based confocal laser microscopy; type: ADME, subcellular; details: sw480, 2 h
# [20] = Drug uptake in tumor of nude BALB/c mouse xenografted with human LS180 cells at 1 mg/kg, iv measured at 9 days post administration by DAPI-based confocal laser microscopic analysis; type: ADME, organism-based, Neoplasm; details: in vivo, 216 h
# [21] = Drug uptake in tumor of nude BALB/c mouse xenografted with human LS180 cells at 1 mg/kg, iv measured after 9 days post administration by fluorescence-based imaging analysis; type: ADME, organism-based, Neoplasm; details: in vivo, 216 h
# [22] = Drug uptake in tumor of nude BALB/c mouse xenografted with human LS180 cells assessed as increase in mean fluorescence intensity at 1 mg/kg, iv measured at 0.25 to 72 hrs post administration by fluorescence-based imaging analysis; type: ADME, organism-based, Neoplasm; details: in vivo
# [23] = Drug uptake in nude BALB/c mouse body cavity xenografted with human LS180 cells assessed as increase in mean fluorescence intensity at 1 mg/kg, iv measured at 24 hrs post administration by fluorescence-based imaging analysis; type: ADME, organism-based; details: in vivo
# [24] = Drug uptake in human LS180 cells up to 1 uM in presence of 4 degC temperature for 2 hrs by fluorospectrometry; type: ADME, cell-based; details: ls180, 2 h
# [25] = Drug uptake in tumor of nude BALB/c mouse xenografted with human LS180 cells assessed as increase in mean fluorescence intensity at 1 mg/kg, iv measured at 48 hrs post administration by fluorescence-based imaging analysis; type: ADME, organism-based, Neoplasm; details: in vivo
# [26] = Drug uptake in tumor of nude BALB/c mouse xenografted with human LS180 cells at 1 mg/kg, iv measured after 4 days post administration by fluorescence-based imaging analysis; type: ADME, organism-based, Neoplasm; details: in vivo, 96 h
# [27] = Drug uptake in tumor of nude BALB/c mouse xenografted with human LS180 cells assessed as increase in mean fluorescence intensity at 1 mg/kg, iv measured at 3 hrs post administration by fluorescence-based imaging analysis; type: ADME, organism-based, Neoplasm; details: in vivo
# [28] = Drug uptake in tumor of nude BALB/c mouse xenografted with human LS180 cells assessed as increase in mean fluorescence intensity at 1 mg/kg, iv measured at 3 to 72 hrs post administration by fluorescence-based imaging analysis; type: ADME, organism-based, Neoplasm; details: in vivo
# [29] = Drug uptake in human LS180 cells after 24 hrs by fluorospectrometry; type: ADME, cell-based; details: ls180, 24 h
# [30] = Drug uptake in human SW480 cells after 24 hrs by fluorospectrometry; type: ADME, cell-based; details: sw480, 24 h
# [31] = Drug uptake in human SW480 cells xenografted in nude BALB/c mouse at 1 mg/kg, iv measured after 9 days post administration by fluorescence-based imaging analysis; type: ADME, organism-based, Neoplasm; details: in vivo, 216 h
# [32] = Drug uptake in tumor of nude BALB/c mouse xenografted with human SW480 cells at 1 mg/kg, iv measured up to 22 days post administration by fluorescence-based imaging analysis; type: ADME, organism-based, Neoplasm; details: in vivo, 528 h
# [33] = Drug uptake in nude BALB/c mouse body cavity xenografted with human LS180 cells assessed as increase in mean fluorescence intensity at 1 mg/kg, iv measured at 1 hr post administration by fluorescence-based imaging analysis; type: ADME, organism-based; details: in vivo
SMILES,Retention_time [1],logP [2],Drug uptake [3],Drug uptake [4],Drug uptake [5],Drug uptake [6],Drug uptake [9],Drug uptake [10],Drug uptake [11],Drug uptake [13],Drug uptake [14],Drug uptake [15],Drug uptake [16],Drug uptake [17],Drug uptake [19],Drug uptake [20],Drug uptake [21],Drug uptake [23],Drug uptake [24],further results
CN(C)CCCNC(=O)CCNC(=O)c1cc(NC(=O)c2cc(NC(=O)CCNC(=O)c3cc(NC(=O)c4cc(NC(=O)c5cc(NC(=O)CCCNC(=O)c6cc(NC(=O)c7cc(NC(=O)c8nc(NC(=O)CCNC(=O)c9nc(NC(=O)c%10nc(NC(=O)CCNC(=S)Nc%11ccc(-c%12c%13ccc(=O)cc-%13oc%13cc(O)ccc%12%13)c(C(=O)O)c%11)cn%10C)cn9C)cn8C)cn7C)cn6C)cn5C)cn4C)cn3C)cn2C)cn1C,10.97 min,1.42,50%,Active,Active,Active,Not Active,Active,Active,Active,Not Active,Not Active,Active,Active,Active,Not Active,Not Active,,,Drug uptake [7]: Active; Drug uptake [8]: Not Active; Drug uptake [12]: Active; Drug uptake [18]: Active
CN(C)CCCNC(=O)CCNC(=O)c1cc(NC(=O)c2cc(NC(=O)CCNC(=O)c3cc(NC(=O)c4cc(NC(=O)c5cc(NC(=O)CCCNC(=O)c6cc(NC(=O)c7cc(NC(=O)c8cc(NC(=O)CCNC(=O)c9nc(NC(=O)c%10nc(NC(=O)CCNC(=S)Nc%11ccc(-c%12c%13ccc(=O)cc-%13oc%13cc(O)ccc%12%13)c(C(=O)O)c%11)cn%10C)cn9C)cn8C)cn7C)cn6C)cn5C)cn4C)cn3C)cn2C)cn1C,11.4 min,1.46,,,,,,,,,,,,,,,,,,
O=C(O)c1ccccc1-c1c2ccc(=O)cc-2oc2cc(O)ccc12,,,,,,,,,,,,,,Not Active,Not Active,,,,,Drug uptake [22]: Not Active
CN(C)CCCNC(=O)CCNC(=O)c1cc(NC(=O)c2cc(NC(=O)CCNC(=O)c3cc(NC(=O)c4cc(NC(=O)c5cc(NC(=O)CCCNC(=O)c6cc(NC(=O)c7cc(NC(=O)c8cc(NC(=O)CCNC(=O)c9nc(NC(=O)c%10cc(NC(=O)CCNC(=S)Nc%11ccc(-c%12c%13ccc(=O)cc-%13oc%13cc(O)ccc%12%13)c(C(=O)O)c%11)cn%10C)cn9C)cn8C)cn7C)cn6C)cn5C)cn4C)cn3C)cn2C)cn1C,11.73 min,1.5,50%,Active,,Active,Not Active,Active,Active,,Not Active,Not Active,Active,Active,Active,Active,Active,Not Active,Active,Drug uptake [28]: Active; Drug uptake [29]: Dose-dependent effect; Drug uptake [30]: Dose-dependent effect; Drug uptake [31]: Active; Drug uptake [32]: Active; Drug uptake [33]: Active

# Second part, led by results:
Retention_time [1],logP [2],Drug uptake [3],Drug uptake [4],Drug uptake [5],Drug uptake [6],Drug uptake [9],Drug uptake [10],Drug uptake [11],Drug uptake [13],Drug uptake [14],Drug uptake [15],Drug uptake [16],Drug uptake [17],Drug uptake [19],Drug uptake [20],Drug uptake [21],Drug uptake [23],Drug uptake [24],SMILES,further results
10.48 min,1.36,,,,,,,,,,,,,,,,,,CN(C)CCCNC(=O)CCNC(=O)c1cc(NC(=O)c2cc(NC(=O)CCNC(=O)c3cc(NC(=O)c4cc(NC(=O)c5cc(NC(=O)CCCNC(=O)c6cc(NC(=O)c7nc(NC(=O)c8nc(NC(=O)CCNC(=O)c9nc(NC(=O)c%10nc(NC(=O)CCNC(=S)Nc%11ccc(-c%12c%13ccc(=O)cc-%13oc%13cc(O)ccc%12%13)c(C(=O)O)c%11)cn%10C)cn9C)cn8C)cn7C)cn6C)cn5C)cn4C)cn3C)cn2C)cn1C,
8.86 min,1.19,50%,Active,Active,Active,Not Active,Active,Active,Active,Not Active,Not Active,Active,Active,Active,Not Active,,Not Active,Not Active,CN(C)CCCNC(=O)CCNC(=O)c1cc(NC(=O)c2cc(NC(=O)CCNC(=O)c3cc(NC(=O)c4cc(NC(=O)c5cc(NC(=O)CCCNC(=O)c6nc(NC(=O)c7nc(NC(=O)c8nc(NC(=O)CCNC(=O)c9nc(NC(=O)c%10nc(NC(=O)CCNC(=S)Nc%11ccc(-c%12c%13ccc(=O)cc-%13oc%13cc(O)ccc%12%13)c(C(=O)O)c%11)cn%10C)cn9C)cn8C)cn7C)cn6C)cn5C)cn4C)cn3C)cn2C)cn1C,Drug uptake [25]: Not Active; Drug uptake [26]: Not Active; Drug uptake [27]: Active
